Source: patent publication US20250263439A1, “HETERODIMERIC PEPTIDE REAGENTS AND METHODS” (REGENTS OF THE UNIVERSITY OF MICHIGAN, priority 2018, published 2025)
“Also recorded” adds a separate entry of the source.

Experiments:
[1] = tested on: EGFR and ErbB2 mediated signaling; experiment: Effect on downstream cell signaling in SKBr3 cells (Western blot); assay type: cell-based, human; conditions: heterodimer at 1, 5, and 20 μM
Description: The effect of heterodimer binding on downstream signaling was evaluated in SKBr3 cells. SKBr3 cells were seeded in 6-well flat-bottom plates. […] EGF (#E9644, Sigma) was reconstituted to 1 mg/mL using 10 mM acetic acid, diluted with 0.1% BSA, and added to SKBr3 cells at a concentration of 100 ng/mL. Lapatinib (CDS022971, Sigma) was diluted to 100 nM in DMSO and PBS from 1 mg/mL stock solution, and was added to the cells incubated with heterodimer at concentrations of 1, 5, and 20 μM in separate wells.

[2] = Hydrophilicity of heterodimer; assay type: physicochemical
[3] = tested on: SKBr3 cells; experiment: Confocal microscopy binding of Cy5.5-labeled heterodimer linker configurations to SKBr3 cells; assay type: cell-based, human; conditions: linkers E2, Hex, E3, E6, E10
Source text: The two monomers were combined in a heterodimer configuration using a variable linker designed with either a PEG spacer that ranged in size from 17-74 atoms or a hydrophobic 6-aminohexonic acid linker in the α-, ξ-amino groups of the second lysine. The linker length was varied to determine the optimal spacing between monomers to maximize binding to the intended targets. Using confocal microscopy, binding for each Cy5.5-labeled heterodimer configuration to human breast cancer cells SKBr3 that overexpress both EGFR and ErbB2 was evaluated, FIG. 1B.
Hydrophilicity was good as well. Western blot analysis was used to show relative EGFR and ErbB2 expression levels, FIG. 1D. Western blot was performed by lysing cells in Pierce® RIPA lysis buffer containing Halt™ protease inhibitor cocktail (#87786, Thermo Scientific) for 30 min on ice. The lysates were centrifuged at 10,000 rpm for 10 min at 4° C. A BSA protein assay kit (#23227, Thermo Scientific) was used to quantify protein concentration in the supernatant. Aliquots of protein (10 μL) were used for electrophoresis on NuPAGE™ 4-12% Bis-Tris gels (#17031471, Invitrogen) followed by electrophoretic transfer onto membranes (#ISEQ00010, Merck Millipore Ltd). […]

[4] = tested on: Barrett's neoplasia (HGD and EAC); experiment: Confocal microscopy of human esophageal specimens ex vivo
Description: The fluorescence intensities from the human esophageal specimens were fit according to 4 histological classifications, including squamous (SQ), Barrett's esophagus (BE), high-grade dysplasia (HGD), and esophageal adenocarcinoma (EAC), and used a one-way ANOVA and used Tukey's multiple comparisons. Co-localization of peptide and antibody binding was evaluated using Pearson's correlation coefficient.
Using confocal microscopy, specific heterodimer binding to Barrett's neoplasia was validated on human specimens ex vivo. Formalin-fixed, paraffin-embedded (FFPE) specimens of human esophagus were obtained from the archived tissue bank in the Department of Pathology, University of Michigan. The tissues were cut into […], deparaffinized, and rehydrated using standard conditions. Two-step acidic and protease-based antigen retrieval was performed. The sections were blocked with protein serum for 10 min at RT followed by rinsing with PBS, and then incubated with the heterodimer (0.5 μM) for ten min in dark conditions at RT. The sections were then washed for three min 3× with PBS and further incubated sequentially with 1:200 dilution of EGFR monoclonal antibody (H11, #MA5-13070, Invitrogen) and 1:500 goat anti-mouse IgG (H+L) AF-568-labeled secondary antibody (#A-11004, Thermo Fisher Scientific), 1:500 dilution of ErbB2 primary antibody (#29D8, rabbit monoclonal antibody #2165S, Cell Signaling Inc), and 1:1000 goat anti-rabbit IgG (H+L) AF-488-labeled secondary antibody (#A11008, Life Technologies Corp). Each antibody was incubated for 1 hour at RT. Sections were washed with TBST 3× and mounted with Prolong Gold reagent containing DAPI (Invitrogen) using #1 cover glass ([…]). Confocal fluorescence microscopy was performed using DAPI, AF488, AF568 and Cy5.5 filter sets. Image quantification was performed by placing 3 boxes with dimensions of 20×20 μm^2 completely within cells found in the epithelium. Mean fluorescence intensities were measured using custom Matlab software (Mathworks). Regions of saturated intensities were avoided.

[5] = tested on: EGFR or ErbB2 in SKBr3 cells; experiment: siRNA knockdown of EGFR or ErbB2 in SKBr3 cells, confocal binding; assay type: cell-based, human
Description: siRNA knockdown experiments were performed to further validate specific heterodimer binding to either EGFR or ErbB2 in vitro. Separate siRNA knockdown of either EGFR or ErbB2 expression in SkBr3 cells was carried out to validate specific peptide binding. ON-TARGET plus human EGFR siRNA (#L-003114-00-0005), ONTARGET plus human ErbB2 siRNA (#L-003126-00-0005) and ON-TARGET plus non-targeting pool (#D-001810-10-05) were used.
siRNA at 5 μM concentration in 5 μL was transfected into SKBr3 cells using DharmaFECT transfection reagents (Thermo Scientific). Briefly, cells were seeded in 6-well culture plates at 30% confluence in McCoy's 5 Å media supplemented with 10% FBS without antibiotics. The cells were transfected with siRNA at a final concentration of […] using oligofectamine (Thermo Scientific). Knockdown of either EGFR or ErbB2 was confirmed by Western blot.

In the case of “heterodimer of QRHKPRE (SEQ ID NO: 1) and KSPNPRF (SEQ ID NO: 2) with E3 (triethyleneglycol) linker, Cy5.5 label [QRH*-KSP*-E3-Cy5.5]”, the “phosphorylation of EGFR (p-EGFR) and ErbB2 (p-ErbB2)” value [1] is reported as “no change”, the “phosphorylation of downstream AKT (p-AKT) and ERK (p-ERK)” value [1] is reported as “no downstream change” and the Hydrophilicity [2] is reported as “good”. For the same substance, the “mean signal among heterodimer linker configurations” value [3] was “largest signal”, the “staining of high-grade dysplasia (HGD) and esophageal adenocarcinoma (EAC)” value ([4]; human specimens ex vivo) was “increased signal; also recorded: increased staining intensity” and the “staining of squamous (SQ) and Barrett's esophagus (BE)” value ([4]; human specimens ex vivo) was “Minimal fluorescence signal; also recorded: minimal staining”. The “mean fluorescence intensity of neoplasia compared with BE and SQ” value ([4]; n=31, 8, 23, and 12 specimens of SQ, BE, HGD, EAC) was “significantly greater mean fluorescence intensity”, the “binding to siCL (control) versus siEGFR (knockdown) SKBr3 cells” value ([5]; confocal microscopy, similar results for siErbB2) was “Less signal; also recorded: significantly greater binding” and the “binding to surface of siCL (control) SKBr3 cells” value ([5]; non-targeting siRNA) was “strong binding”. For the same substance, the “mean fluorescence intensity in EGFR or ErbB2 knockdown cells” value ([5]; quantified, versus control SKBr3 cells) was “significant reduction”.
